In article PMC12067444, “Synthesis and Pharmacological Characterization of Novel Peripheral Cannabinoid-1 Receptor Blockers Based on a Tricyclic Scaffold” (Journal of Medicinal Chemistry, 2025):

What was measured:
[1] = Brain compound levels in the CNS side-effect study (Figure 2H); assay type: in vivo; details: male, C57Bl/6J, mouse, in vivo; BNS808 PO (1 or 10 mg/kg, dose not stated), 1 h after administration
Procedure: The ability of BNS808 and rimonabant (as a positive control) to induce centrally mediated hyperactivity in mice (A–C). Wild-type, male, C57Bl/6J mice received a single dose of rimonabant (10 mg/kg, PO), BNS808 (1 or 10 mg/kg, PO) or vehicle, and the Promethion High-Definition Behavioral Phenotyping System monitored the activity profile. In addition, the ability of BNS808 and rimonabant (as a positive control) to inhibit the hypomotility induced by a CB1R receptor agonist (HU210; 30 μg/kg, IP) was tested in wild-type, male, C57Bl/6J mice which received a single dose of rimonabant (10 mg/kg, PO) or BNS808 (1 or 10 mg/kg, PO) or vehicle (D–F). […] Data represent the mean ± SEM from 4 to 8 mice per group. *P < 0.05 vs Vehicle-treated control. ^#P < 0.05 vs rimonabant.

[2] = test system: mice; experiment: Cataleptic behavior (bar test) induced by WIN-55,212; assay type: in vivo, mouse; details: rimonabant 10 mg/kg PO, BNS808 1 mg/kg; 30 min before WIN-55,212 3 mg/kg IP; bar test at 60 min
Procedure: Catalepsy was assayed using the bar test. Mice were taken out of their home cages, and their forepaws were placed on a horizontal bar measuring 0.5 cm in diameter, positioned 4 cm above the bench surface. Typically, vehicle-treated mice released the bar within 2 s. Cataleptic behavior was defined as the mice remaining motionless, grasping onto the bar, with an arbitrary cutoff of 30 s. The CB1R antagonists, including rimonabant at doses 1 and 10 mg/kg and BNS808 at a dose of 1 mg/kg, were administered 30 min before the IP injection of 3 mg/kg WIN-55,212 (a CB1R agonist). The test was conducted 60 min after the administration of the agonist.

[3] = Protein binding in mouse brain, equilibrium dialysis; details: mouse
Procedure: Protein binding of test compound in mouse brain using equilibrium dialysis […]
method. Solution A (0. 5 mM) was prepared by mixing 10 µL of a 10 mM stock solution […]
with 190 µL of DMSO. Subsequently, Solution B (0.02 mM) was prepared by adding […]
8 µL of solution A to 192 µL of 0.05 M sodium phosphate buffer. The final concentration of DMSO in Solution B was 4%.
A 96-well plate was initially prepared by dispensing 380 µL aliquots of brain […]
tissue into wells designated for the brain while t h e buffer was added to the remaining […]
wells to serve as a control. Subsequently, 20 µL of Solution B (containing 0.02 mM of […]
test and reference compounds) was spiked into the pre-loaded brain samples in the […]
plate. This step yielded a final test concentration of 1 µM, containing 0.2% DMSO. A duplicate system was establi shed for the dialysis sampl es wherein brain tissu e was prepared against buffer. Initially, 100 µL aliquots of blank dialysis buffer were applied to the receiver side of the dialysis chambers. Subsequently, 100 µL aliquots of the brain […]
tissue spiked with te st and reference compounds were applied to the donor side of the […]
T0 brain samples for initial concentrations were prepared in duplicate. A 25µL […]
aliquot of the brain spiked with test and reference compounds was transferred into a 96- […]
well sample preparation plate. An equivalent volume of blank buffer was then added […]
to each well. Af ter the 5-hour incubation period, aliquots of 25 µL wer e taken f r om t h e […]
dialysis apparatus's donor and receiver sides and transferred into new sample […]
preparation plates. An equal volume of the opposite matrix (blank buffer to brain and […]
vice versa) was added to each well, resulting in a final volume of 50 µL in each well.
The samples (both T0 and f i v e h) were then quenched with 200 µL of acetonitrile […]
containing internal standard (IS) and vortexed at 600 rpm for 10 minutes. After […]
vortexing, the samples were centrifuged at 5594 × g for 15 minutes. Subsequently, 50 […]
µL of the supernatants were transferred to a new 96-well plate and mixed with 50 µL […]
of Milli- Q water. T he sample plates wer e cover ed and stor ed in a f r eezer ( -20 ℃) until […]
respectively. For data analysis, the following equations wer e used:
% Bound = 100 × ([Donor]5h -[ Receiver] 5h) / [Donor] 5h
% Recovery= 100 × ([Donor]5h +[Receiver] 5h) / [Initial] 0h
Undiluted Fu (%) = (1/D) / [(1/Fu2-1 ) + 1/ D ]
Whereas; D: Dilution factor = Dilution factor of brain: 4

[4] = Stability in simulated intestinal fluid (SIF); assay type: in vitro ADME
[5] = test system: bacteria strains TA98, TA100; experiment: Mini-Ames assay, overall result; assay type: cell-based
Procedure: Mini Am es assay. To conduct the assay, top agar was melted with a microwave and maintained at a temper atur e ≥47 °C in a water bath. T he assay was performed using a heat block set to 45 °C ± 2 °C. 12 × 75 mm test tubes were prepared in duplicates. For each concentration, the following components were added sequentially to a test tube:
[…] The mixture was vortexed and then dispensed into w ells using a dispo sable pipette. The plates wer e then incubated at 37±2 °C for approximately 48 to 72 hours.
BBbbbb BBBBbbbb BBBB = AAAAbbbbbbAAbb nnnnnnbbbbbb bboo bbbbAAbbbbbbbbnnbbbb oobbbb bbbb eeee dd bbbbbb AAbbbbnn gg AAAAbbbbbbAAbb nnnnnnbbbbbb bbBB bbbbAAbbbbbbbbnnbbbb BBbbbb DDDDDDDD nn bbAAbbbbaaAAbb AAbbbbnnaa The mutagenicity of the compound was determined by evaluating the number of revertant colonies in strains TA98 and TA100. A compound was […]
related and if the fold increase in revertants (F) was equal to or greater than 2 for […]
background lawn growth on the agar plates. A scoring system ranging from 0 to 4 […]
complete cytotoxicity, while scores 1, 2, and 3 represented 25%, 50%, and 75% growth, respectively. A score of 4 signified full '100%' growth. The background […]
background lawn and required magnification for visualization. […]

## O=S(=O)(NC1CCCOc2c1nn(-c1ccccc1Cl)c2-c1ccc(Cl)cc1)c1ccc(Cl)cc1 (stereo not shown) [BNS808, 4-chloro-N-[2-(2-chlorophenyl)-3-(4-chlorophenyl)-5,6,7,8-tetrahydrooxepino[3,2-c]pyrazol-8-yl]benzenesulfonamide]
[1]
  concentration at 1 h: 13 ng/g
[2]
  blockade of WIN-55,212-induced cataleptic behavior: only rimonabant (10 mg/kg, PO) blocked the cataleptic behavior
[3]
  recovery at 5 h, 1 µM: 81.8%
[4]; 0 h
  amount in SIF with pancreatin: 2.972 mg
  amount in SIF, no pancreatin: 3.257 mg
[4]; 1 h
  Initial amount (%) in SIF with pancreatin: 102%
  Initial amount (%) in SIF, no pancreatin: 101%
  amount in SIF with pancreatin: 3.023 mg
  amount in SIF, no pancreatin: 3.277 mg
[4]; 3 h
  Initial amount (%) in SIF with pancreatin: 101%
  Initial amount (%) in SIF, no pancreatin: 100%
  amount in SIF with pancreatin: 3.0009 mg
  amount in SIF, no pancreatin: 3.266 mg
[4]; with and without pancreatin
  Stability in SIF: Stable
[5]; 31.25 to 1000 μg/well, TA98 and TA100
  toxicity in mini-Ames assay: no toxicity
[5]; TA98 and TA100, with and without S9
  mini-Ames assay (mutagenic effect): nonmutagenic ^b
